Results published in ChEMBL document CHEMBL1137546, “The discovery of indole-derived long acting beta2-adrenoceptor agonists for the treatment of asthma and COPD” (Bioorg Med Chem Lett, 2007).

What was measured:
[1] = organism: Homo sapiens; assay: Ratio of EC50 for human recombinant adrenergic beta-2 receptor to EC50 for human recombinant adrenergic beta-1 receptor
[2] = target: Beta-2 adrenergic receptor (Homo sapiens, UniProt P07550)
Description: Agonist activity at human recombinant adrenergic beta-2 receptor expressed in CHO cells assessed as elevation in cAMP levels

[3] = Lipophilicity, log D of the compound; format: physicochemical; settings: octanol/water
[4] = Apparent permeability from basolateral to apical side of human Caco-2 cell membrane; format: ADME, cell-based
[5] = Oral bioavailability po dosed rat; format: ADME, organism-based; settings: in vivo
[6] = Protein binding in rat plasma; format: ADME, cell-free; settings: read-out: PPB (converted)
[7] = Volume of distribution in iv dosed rat; format: ADME, organism-based; settings: in vivo
[8] = Half life in iv dosed rat; format: ADME, organism-based; settings: in vivo
[9] = Metabolic stability in human liver microsomes; format: ADME, Microsome
[10] = system: Rattus norvegicus; assay: Unbound clearance in iv dosed rat; format: ADME, organism-based; settings: in vivo
[11] = Total clearance in iv dosed rat; format: ADME, organism-based; settings: in vivo
[12] = Apparent permeability from apical to basolateral side of human Caco-2 cell membrane; format: ADME, cell-based

Chain of Beta-2 adrenergic receptor (P07550 whole entry): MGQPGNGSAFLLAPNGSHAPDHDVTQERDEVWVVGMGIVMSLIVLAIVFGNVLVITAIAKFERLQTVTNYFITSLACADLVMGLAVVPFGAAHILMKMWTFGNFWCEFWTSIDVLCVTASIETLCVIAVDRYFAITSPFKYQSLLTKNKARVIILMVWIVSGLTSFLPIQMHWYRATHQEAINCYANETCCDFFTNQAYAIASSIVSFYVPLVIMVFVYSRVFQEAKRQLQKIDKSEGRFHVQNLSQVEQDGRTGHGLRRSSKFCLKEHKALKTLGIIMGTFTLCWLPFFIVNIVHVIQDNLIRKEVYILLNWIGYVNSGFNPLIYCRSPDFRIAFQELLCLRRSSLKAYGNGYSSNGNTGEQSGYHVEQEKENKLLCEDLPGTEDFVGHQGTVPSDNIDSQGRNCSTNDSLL

SMILES	Ratio EC50 [1]	EC50 [2]	logD [3]	further results
COc1cccc(OC)c1CNC(=O)c1cc2cc(C[C@@H](C)NC[C@H](O)c3ccc(O)c(CO)c3)ccc2n1C	1080	0.706 nM		
C[C@H](Cc1ccc2[nH]c(C(=O)N(C)Cc3ccccc3)cc2c1)NC[C@H](O)c1ccc(O)c(CO)c1	882	0.022 nM	2.1	
COc1cccc(CCNC(=O)c2cc3cc(C[C@@H](C)NC[C@H](O)c4ccc(O)c(CO)c4)ccc3[nH]2)c1	35	0.254 nM	2	
CC[C@H](Cc1ccc2[nH]c(C(=O)NCc3c(OC)cccc3OC)cc2c1)NC[C@H](O)c1ccc(O)c(CO)c1	5740	0.258 nM		
COc1cccc(OC)c1CNC(=O)c1cc2cc(C[C@@H](C)NC[C@H](O)c3ccc(O)c(CO)c3)ccc2n1Cc1ccccc1	237	0.687 nM		
COc1ccccc1CNC(=O)c1cc2cc(C[C@@H](C)NC[C@H](O)c3ccc(O)c(CO)c3)ccc2[nH]1	1240		2.2	
OCc1cc([C@@H](O)CNCCCCCCOCCCCc2ccccc2)ccc1O [SALMETEROL]			2.1	
CSc1ccccc1CNC(=O)c1cc2cc(C[C@@H](C)NC[C@H](O)c3ccc(O)c(CO)c3)ccc2[nH]1	332	0.038 nM		
C[C@H](Cc1ccc2[nH]c(C(=O)NCC3CCC3)cc2c1)NC[C@H](O)c1ccc(O)c(CO)c1	410	0.051 nM	1.9	
C[C@H](Cc1ccc2[nH]c(C(=O)NCc3ccc(O)cc3)cc2c1)NC[C@H](O)c1ccc(O)c(CO)c1	75	0.164 nM		
C[C@H](Cc1ccc2[nH]c(C(=O)NCc3ccc(S(N)(=O)=O)cc3)cc2c1)NC[C@H](O)c1ccc(O)c(CO)c1	42	0.122 nM		
C[C@H](Cc1ccc2[nH]c(C(=O)NCc3ccccn3)cc2c1)NC[C@H](O)c1ccc(O)c(CO)c1	1530	0.038 nM		
C[C@H](Cc1ccc2[nH]c(C(=O)N[C@H](C)c3ccccc3)cc2c1)NC[C@H](O)c1ccc(O)c(CO)c1	585	0.058 nM	2.2	
CCn1c(C(=O)NCc2c(OC)cccc2OC)cc2cc(C[C@@H](C)NC[C@H](O)c3ccc(O)c(CO)c3)ccc21	254	2.55 nM		
C[C@H](Cc1ccc2[nH]c(C(=O)NCc3c(F)cccc3F)cc2c1)NC[C@H](O)c1ccc(O)c(CO)c1	296	0.053 nM		
C[C@H](Cc1ccc2[nH]c(C(=O)NCc3ccccc3)cc2c1)NC[C@H](O)c1ccc(O)c(CO)c1	480	0.049 nM		
COc1cccc(OC)c1CNC(=O)c1cc2cc(C[C@@H](C)NC[C@H](O)c3ccc(O)c(CO)c3)ccc2[nH]1	4040	0.058 nM	2.2	Papp B→A [4]: 14 ×10⁻⁶ cm/s; bioavailability [5]: < 5%; fraction unbound [6]: 0.1; Vd [7]: 18 L/kg; half-life [8]: 96 min; half-life [9]: 4 min; CL [10]: 1200 mL/min/kg; clearance [11]: 130 mL/min/kg; Papp A→B [12]: < 1 ×10⁻⁶ cm/s
C[C@H](Cc1ccc2[nH]c(C(=O)NCc3nccs3)cc2c1)NC[C@H](O)c1ccc(O)c(CO)c1	1340	0.031 nM	0.8	
